Measurements from ChEMBL document CHEMBL2429821, “A Casein kinase 1/Checkpoint kinase 1 pyrazolo-pyridine protein kinase inhibitor as novel activator of the p53 pathway” (Bioorg Med Chem Lett, 2013).

Assays:
[1] = molecular target: Tyrosine-protein kinase Yes (Homo sapiens) (UniProt P07947); assay: Inhibition of human YES1 assessed as residual activity at 1 uM relative to control
[2] = molecular target: T1, Serine/threonine-protein kinase Nek2 (Homo sapiens) (UniProt P51955); assay: Inhibition of human NEK2alpha assessed as residual activity at 10 uM relative to control
T1 sequence (whole entry): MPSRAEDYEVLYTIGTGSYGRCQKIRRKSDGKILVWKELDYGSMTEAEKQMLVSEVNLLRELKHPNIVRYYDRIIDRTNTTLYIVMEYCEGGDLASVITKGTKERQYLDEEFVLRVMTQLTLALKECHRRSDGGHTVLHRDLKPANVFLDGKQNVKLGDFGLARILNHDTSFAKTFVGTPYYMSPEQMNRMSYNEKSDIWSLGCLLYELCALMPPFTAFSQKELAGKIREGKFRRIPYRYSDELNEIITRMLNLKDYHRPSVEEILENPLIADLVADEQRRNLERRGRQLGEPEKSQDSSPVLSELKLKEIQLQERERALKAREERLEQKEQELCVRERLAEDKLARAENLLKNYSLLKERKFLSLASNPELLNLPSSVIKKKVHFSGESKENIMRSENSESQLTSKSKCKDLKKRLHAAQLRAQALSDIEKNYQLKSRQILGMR

[3] = molecular target: RAC-alpha serine/threonine-protein kinase (Homo sapiens) (UniProt P31749); assay: Inhibition of human PKBalpha assessed as residual activity at 1 uM relative to control
Sequence of RAC-alpha serine/threonine-protein kinase (Homo sapiens) (P31749 whole entry): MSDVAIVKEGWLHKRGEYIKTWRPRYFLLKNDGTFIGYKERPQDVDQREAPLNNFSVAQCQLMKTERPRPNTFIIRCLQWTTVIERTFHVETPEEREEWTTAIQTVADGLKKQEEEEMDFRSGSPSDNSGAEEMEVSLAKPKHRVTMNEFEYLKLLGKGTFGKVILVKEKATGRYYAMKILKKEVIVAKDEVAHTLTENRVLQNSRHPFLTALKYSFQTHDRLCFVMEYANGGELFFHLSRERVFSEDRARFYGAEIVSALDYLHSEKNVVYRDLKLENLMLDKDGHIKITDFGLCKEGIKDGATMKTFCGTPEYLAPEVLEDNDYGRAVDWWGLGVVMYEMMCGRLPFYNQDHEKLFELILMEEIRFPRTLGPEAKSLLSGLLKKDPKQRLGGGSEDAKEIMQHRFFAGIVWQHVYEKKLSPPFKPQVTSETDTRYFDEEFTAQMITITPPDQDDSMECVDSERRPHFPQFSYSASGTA

[4] = molecular target: Rho-associated protein kinase 2 (Rattus norvegicus) (UniProt Q62868); assay: Inhibition of rat ROCK2 assessed as residual activity at 10 uM relative to control
[5] = molecular target: Tyrosine-protein kinase CSK (Homo sapiens) (UniProt P41240); assay: Inhibition of human CSK assessed as residual activity at 10 uM relative to control
[6] = molecular target: T1, Serine/threonine-protein kinase Nek2 (Homo sapiens); assay: Inhibition of human NEK2alpha assessed as residual activity at 1 uM relative to control
[7] = molecular target: Myosin light chain kinase, smooth muscle (Homo sapiens) (UniProt Q15746); assay: Inhibition of human smMLCK assessed as residual activity at 1 uM relative to control
[8] = molecular target: Homeodomain-interacting protein kinase 2 (Homo sapiens) (UniProt Q9H2X6); assay: Inhibition of human HIPK2 assessed as residual activity at 10 uM relative to control
Sequence of Homeodomain-interacting protein kinase 2 (Homo sapiens) (Q9H2X6 whole entry, looked up): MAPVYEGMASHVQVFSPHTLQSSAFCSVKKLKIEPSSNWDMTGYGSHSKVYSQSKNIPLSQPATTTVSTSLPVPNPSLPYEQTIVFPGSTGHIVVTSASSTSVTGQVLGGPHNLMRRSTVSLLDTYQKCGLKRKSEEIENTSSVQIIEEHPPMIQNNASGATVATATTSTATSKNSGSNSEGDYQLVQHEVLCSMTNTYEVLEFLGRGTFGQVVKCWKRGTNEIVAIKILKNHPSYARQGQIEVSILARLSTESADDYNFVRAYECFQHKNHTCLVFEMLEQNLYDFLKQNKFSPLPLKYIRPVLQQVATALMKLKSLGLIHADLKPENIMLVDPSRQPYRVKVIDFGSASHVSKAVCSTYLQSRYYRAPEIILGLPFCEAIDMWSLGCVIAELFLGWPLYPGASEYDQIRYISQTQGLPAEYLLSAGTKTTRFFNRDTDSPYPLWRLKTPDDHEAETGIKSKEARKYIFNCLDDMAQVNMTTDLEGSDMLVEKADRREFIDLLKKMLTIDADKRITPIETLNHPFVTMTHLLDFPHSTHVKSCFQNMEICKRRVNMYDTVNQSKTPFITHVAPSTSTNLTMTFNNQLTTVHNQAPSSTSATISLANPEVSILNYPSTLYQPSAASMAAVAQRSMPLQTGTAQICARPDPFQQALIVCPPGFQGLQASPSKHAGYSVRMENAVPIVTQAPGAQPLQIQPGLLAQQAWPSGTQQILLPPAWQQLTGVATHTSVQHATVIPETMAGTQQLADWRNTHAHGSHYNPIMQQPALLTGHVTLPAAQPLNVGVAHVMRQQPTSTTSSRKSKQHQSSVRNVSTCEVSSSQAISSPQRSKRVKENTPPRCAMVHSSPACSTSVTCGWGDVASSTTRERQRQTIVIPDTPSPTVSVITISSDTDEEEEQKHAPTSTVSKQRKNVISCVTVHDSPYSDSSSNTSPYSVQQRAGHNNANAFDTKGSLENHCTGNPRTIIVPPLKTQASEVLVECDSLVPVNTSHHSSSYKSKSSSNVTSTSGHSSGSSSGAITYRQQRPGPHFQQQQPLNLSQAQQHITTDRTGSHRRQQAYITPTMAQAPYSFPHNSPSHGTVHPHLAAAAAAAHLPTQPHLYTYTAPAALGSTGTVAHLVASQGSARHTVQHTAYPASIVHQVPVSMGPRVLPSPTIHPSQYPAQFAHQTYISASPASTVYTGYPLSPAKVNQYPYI

[9] = molecular target: Insulin receptor (Homo sapiens) (UniProt P06213); assay: Inhibition of human IR assessed as residual activity at 10 uM relative to control
Sequence of Insulin receptor (Homo sapiens) (P06213 28-758 limits assumed): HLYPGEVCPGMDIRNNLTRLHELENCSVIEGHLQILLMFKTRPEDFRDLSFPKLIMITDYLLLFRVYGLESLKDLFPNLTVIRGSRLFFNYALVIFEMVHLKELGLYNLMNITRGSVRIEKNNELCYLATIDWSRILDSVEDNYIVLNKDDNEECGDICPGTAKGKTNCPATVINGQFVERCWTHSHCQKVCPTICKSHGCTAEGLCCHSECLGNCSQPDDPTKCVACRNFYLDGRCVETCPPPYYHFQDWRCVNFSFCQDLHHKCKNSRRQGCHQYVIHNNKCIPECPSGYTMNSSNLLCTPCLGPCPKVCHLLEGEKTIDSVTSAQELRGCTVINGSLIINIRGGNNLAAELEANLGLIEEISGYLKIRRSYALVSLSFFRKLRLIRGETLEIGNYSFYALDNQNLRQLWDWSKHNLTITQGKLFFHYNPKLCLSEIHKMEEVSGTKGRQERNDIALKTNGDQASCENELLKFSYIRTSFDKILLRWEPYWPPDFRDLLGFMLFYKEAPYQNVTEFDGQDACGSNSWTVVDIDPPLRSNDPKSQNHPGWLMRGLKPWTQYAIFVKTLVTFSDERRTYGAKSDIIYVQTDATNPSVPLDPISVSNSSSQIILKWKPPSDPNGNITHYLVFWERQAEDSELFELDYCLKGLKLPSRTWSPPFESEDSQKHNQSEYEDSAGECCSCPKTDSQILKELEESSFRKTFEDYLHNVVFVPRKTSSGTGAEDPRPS
Sequence of Insulin receptor (Homo sapiens) (P06213 763-1382 limits assumed): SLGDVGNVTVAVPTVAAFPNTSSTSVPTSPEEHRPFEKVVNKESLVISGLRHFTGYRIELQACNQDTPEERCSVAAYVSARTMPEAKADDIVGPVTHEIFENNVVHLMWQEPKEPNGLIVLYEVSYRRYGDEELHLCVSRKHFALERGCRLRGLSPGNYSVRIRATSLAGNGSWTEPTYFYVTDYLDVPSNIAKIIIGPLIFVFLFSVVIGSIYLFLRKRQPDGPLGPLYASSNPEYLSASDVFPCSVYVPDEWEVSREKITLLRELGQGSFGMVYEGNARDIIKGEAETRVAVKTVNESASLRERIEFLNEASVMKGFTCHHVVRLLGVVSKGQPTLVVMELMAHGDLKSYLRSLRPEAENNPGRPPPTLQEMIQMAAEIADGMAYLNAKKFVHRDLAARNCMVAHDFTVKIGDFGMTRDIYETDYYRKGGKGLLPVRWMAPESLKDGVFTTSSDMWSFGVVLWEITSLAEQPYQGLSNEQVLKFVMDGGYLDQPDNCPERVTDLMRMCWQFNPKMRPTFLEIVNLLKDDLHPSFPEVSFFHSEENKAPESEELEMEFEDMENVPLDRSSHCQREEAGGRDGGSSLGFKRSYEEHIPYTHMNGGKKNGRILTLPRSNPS

[10] = molecular target: Calcium/calmodulin-dependent protein kinase type 1 (Homo sapiens) (UniProt Q14012); assay: Inhibition of human CAMK1 assessed as residual activity at 10 uM relative to control
[11] = molecular target: T2, MAP kinase-activated protein kinase 5 (Homo sapiens) (UniProt Q8IW41); assay: Inhibition of human PRAK assessed as residual activity at 10 uM relative to control
T2 sequence (whole entry): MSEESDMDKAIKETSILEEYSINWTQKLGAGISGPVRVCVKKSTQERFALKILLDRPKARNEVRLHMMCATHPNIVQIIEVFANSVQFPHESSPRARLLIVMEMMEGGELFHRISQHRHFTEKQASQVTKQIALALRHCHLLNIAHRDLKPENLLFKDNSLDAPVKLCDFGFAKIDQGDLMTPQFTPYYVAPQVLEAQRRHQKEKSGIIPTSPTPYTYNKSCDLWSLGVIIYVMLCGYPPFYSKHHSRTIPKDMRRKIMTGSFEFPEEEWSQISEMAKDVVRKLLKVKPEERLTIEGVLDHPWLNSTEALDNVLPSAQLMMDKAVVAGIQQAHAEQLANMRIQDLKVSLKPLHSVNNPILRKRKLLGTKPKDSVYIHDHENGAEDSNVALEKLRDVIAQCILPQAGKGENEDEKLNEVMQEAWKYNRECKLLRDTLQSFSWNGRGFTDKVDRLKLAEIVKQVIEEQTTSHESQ

[12] = molecular target: Ephrin type-A receptor 2 (Homo sapiens) (UniProt P29317); assay: Inhibition of human EPHA2 assessed as residual activity at 1 uM relative to control
Sequence of Ephrin type-A receptor 2 (Homo sapiens) (P29317 whole entry): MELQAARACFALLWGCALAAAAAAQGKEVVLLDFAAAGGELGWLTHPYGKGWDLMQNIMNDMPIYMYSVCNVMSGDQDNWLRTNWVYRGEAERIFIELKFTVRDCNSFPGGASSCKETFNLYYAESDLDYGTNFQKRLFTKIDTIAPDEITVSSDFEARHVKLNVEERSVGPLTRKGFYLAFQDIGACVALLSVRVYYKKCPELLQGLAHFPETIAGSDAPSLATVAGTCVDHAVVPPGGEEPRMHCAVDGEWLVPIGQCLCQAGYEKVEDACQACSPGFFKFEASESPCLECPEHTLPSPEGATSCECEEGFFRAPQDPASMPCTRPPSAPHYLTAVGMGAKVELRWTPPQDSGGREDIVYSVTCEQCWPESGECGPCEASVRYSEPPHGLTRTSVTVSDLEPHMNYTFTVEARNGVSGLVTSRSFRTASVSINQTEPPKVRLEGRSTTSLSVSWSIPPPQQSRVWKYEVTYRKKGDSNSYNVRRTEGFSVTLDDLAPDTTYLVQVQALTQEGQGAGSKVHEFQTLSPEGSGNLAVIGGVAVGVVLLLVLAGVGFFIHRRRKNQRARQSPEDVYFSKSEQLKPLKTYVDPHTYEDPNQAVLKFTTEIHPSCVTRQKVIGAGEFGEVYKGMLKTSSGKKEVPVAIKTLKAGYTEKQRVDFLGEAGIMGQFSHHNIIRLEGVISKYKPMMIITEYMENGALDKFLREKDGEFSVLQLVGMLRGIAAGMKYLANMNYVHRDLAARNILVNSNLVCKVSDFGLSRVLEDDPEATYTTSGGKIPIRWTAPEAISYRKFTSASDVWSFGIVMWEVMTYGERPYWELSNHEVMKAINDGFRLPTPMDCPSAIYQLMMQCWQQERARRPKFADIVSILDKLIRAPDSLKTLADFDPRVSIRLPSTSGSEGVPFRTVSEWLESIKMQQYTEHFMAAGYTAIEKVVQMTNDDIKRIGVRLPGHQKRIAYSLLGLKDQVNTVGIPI

[13] = molecular target: Ribosomal protein S6 kinase beta-1 (Homo sapiens) (UniProt P23443); assay: Inhibition of human S6K1 assessed as residual activity at 10 uM relative to control
Sequence of Ribosomal protein S6 kinase beta-1 (Homo sapiens) (P23443 whole entry, looked up): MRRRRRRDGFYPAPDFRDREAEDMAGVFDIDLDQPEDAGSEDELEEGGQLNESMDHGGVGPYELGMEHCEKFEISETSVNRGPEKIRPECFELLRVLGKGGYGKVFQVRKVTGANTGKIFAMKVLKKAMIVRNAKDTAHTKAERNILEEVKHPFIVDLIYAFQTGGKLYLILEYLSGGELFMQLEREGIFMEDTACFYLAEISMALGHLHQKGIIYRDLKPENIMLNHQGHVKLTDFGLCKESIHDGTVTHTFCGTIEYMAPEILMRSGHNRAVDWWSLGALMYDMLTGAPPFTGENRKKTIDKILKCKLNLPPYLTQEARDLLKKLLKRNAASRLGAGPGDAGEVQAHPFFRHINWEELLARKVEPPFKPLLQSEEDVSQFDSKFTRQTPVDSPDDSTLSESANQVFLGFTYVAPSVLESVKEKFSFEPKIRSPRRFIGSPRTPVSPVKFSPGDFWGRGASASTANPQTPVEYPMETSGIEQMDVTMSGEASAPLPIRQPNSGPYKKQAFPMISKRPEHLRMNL

[14] = molecular target: Proto-oncogene tyrosine-protein kinase Src (Homo sapiens) (UniProt P12931); assay: Inhibition of human SRC assessed as residual activity at 10 uM relative to control
Sequence of Proto-oncogene tyrosine-protein kinase Src (Homo sapiens) (P12931 2-536 limits assumed): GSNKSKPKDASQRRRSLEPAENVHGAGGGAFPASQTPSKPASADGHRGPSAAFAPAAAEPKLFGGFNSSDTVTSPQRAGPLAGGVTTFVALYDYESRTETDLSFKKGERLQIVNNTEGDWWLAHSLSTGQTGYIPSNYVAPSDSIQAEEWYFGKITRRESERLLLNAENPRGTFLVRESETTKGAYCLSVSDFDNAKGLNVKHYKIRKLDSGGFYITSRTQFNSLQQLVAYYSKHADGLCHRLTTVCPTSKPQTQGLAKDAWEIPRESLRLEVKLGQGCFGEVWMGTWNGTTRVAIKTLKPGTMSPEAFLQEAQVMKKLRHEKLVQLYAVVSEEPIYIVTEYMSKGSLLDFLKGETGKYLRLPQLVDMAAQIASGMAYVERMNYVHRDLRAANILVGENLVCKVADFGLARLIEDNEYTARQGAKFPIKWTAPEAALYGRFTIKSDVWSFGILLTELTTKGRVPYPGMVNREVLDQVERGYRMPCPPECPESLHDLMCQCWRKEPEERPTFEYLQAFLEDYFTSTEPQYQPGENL

[15] = molecular target: Ephrin type-A receptor 2 (Homo sapiens) (UniProt P29317); assay: Inhibition of human EPHA2 assessed as residual activity at 10 uM relative to control
Oryctolagus cuniculus = species: Oryctolagus cuniculus; assay: Inhibition of rabbit MKK1 assessed as residual activity at 10 uM relative to control
[16] = molecular target: Dual specificity tyrosine-phosphorylation-regulated kinase 1A (Rattus norvegicus) (UniProt Q63470); assay: Inhibition of rat DYRK1alpha assessed as residual activity at 10 uM relative to control
[17] = molecular target: T3, Eukaryotic elongation factor 2 kinase (Homo sapiens) (UniProt O00418); assay: Inhibition of human EF2K assessed as residual activity at 10 uM relative to control
T3 sequence (whole entry): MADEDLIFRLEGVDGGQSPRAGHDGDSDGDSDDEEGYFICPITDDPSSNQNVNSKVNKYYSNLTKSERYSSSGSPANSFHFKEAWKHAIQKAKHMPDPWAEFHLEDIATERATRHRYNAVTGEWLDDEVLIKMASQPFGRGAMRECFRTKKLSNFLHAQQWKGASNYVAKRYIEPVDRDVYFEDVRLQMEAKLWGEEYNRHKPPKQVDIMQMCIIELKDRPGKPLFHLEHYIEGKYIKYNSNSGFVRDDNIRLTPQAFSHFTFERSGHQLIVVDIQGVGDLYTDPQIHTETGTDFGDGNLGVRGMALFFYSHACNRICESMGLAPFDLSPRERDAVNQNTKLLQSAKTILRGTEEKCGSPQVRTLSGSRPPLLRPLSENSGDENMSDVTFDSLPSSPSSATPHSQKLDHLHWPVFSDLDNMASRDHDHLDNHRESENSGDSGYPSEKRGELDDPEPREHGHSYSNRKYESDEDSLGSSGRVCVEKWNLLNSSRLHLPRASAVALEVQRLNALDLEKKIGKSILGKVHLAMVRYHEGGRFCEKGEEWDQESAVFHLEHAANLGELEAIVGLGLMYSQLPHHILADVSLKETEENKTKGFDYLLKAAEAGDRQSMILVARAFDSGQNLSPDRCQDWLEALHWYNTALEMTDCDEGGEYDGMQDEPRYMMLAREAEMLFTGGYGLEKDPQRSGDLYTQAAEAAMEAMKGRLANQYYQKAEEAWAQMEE

| Activity [1] | Activity [2] | Activity [3] | Activity [4] | Activity [5] | Activity [6] | Activity [7] | Activity [8] | Activity [9] | Activity [10] | Activity [11] | Activity [12] | Activity [13] | Activity [14] | Activity [15] | Activity (Oryctolagus cuniculus) | Activity [16] | Activity [17] | SMILES |
| --- | --- | --- | --- | --- | --- | --- | --- | --- | --- | --- | --- | --- | --- | --- | --- | --- | --- | --- |
| 100% | 10.5% | 89.5% | 58.7% | 48% | 53.5% | 72.9% | 42.4% | 94.9% | 68.4% | 89.4% | 101% | 69.8% | 23.8% | 69.5% | 45.9% | 39.9% | 106% | CC(=O)Nc1cccc(-c2cnc3[nH]nc(C)c3c2)c1 |
| 119% | 82.7% | 112% | 92.3% | 104% | 85.8% | 80.4% | 94.2% | 100% | 71% | 83.7% | 91.2% | 99.9% | 91.9% | 91.9% | 66.8% | 102% | 83% | CC(=O)Nc1nccc(-c2c(-c3ccccc3)noc2C)n1 |
| 83% | 90% | 94% | 111% | 80% | 97% | 87% | 31% | 101% | 83% | 88% | 86% | 88% | 72% | 88% | 103% | 2% | 95% | CCCC(=O)Nc1n[nH]c2ncc(-c3cccnc3)cc12 |
